Like-named read-outs stand apart in the source and are kept apart here.
Key:
Salmonella = Salmonella (Ames) test; cited from earlier work
subjects with hair loss = conditions: cited from earlier work
rat bone marrow = rat bone marrow micronucleus assay; cited from earlier work
hypertensive patients = conditions: intravenous infusion; cited from earlier work
human lymphocytes = conditions: cited from earlier work
rats [1] = conditions: cited from earlier work
[2] = tested on: person with androgenetic alopecia; test: Case studies: oral minoxidil in males with androgenetic alopecia (blood pressure, heart rate, hair growth)
mice = conditions: dietary, cited from earlier work
dogs = conditions: short-term administration 0.5 mg to 10 mg/kg/day; cited from earlier work
rat hepatocyte = conditions: in vitro rat hepatocyte unscheduled DNA synthesis assay; cited from earlier work
mouse bone marrow = mouse bone marrow micronucleus assay; cited from earlier work
rats [3] = conditions: cited from earlier work; remark: listed apart in the source
rabbits = conditions: cited from earlier work
[4] = cited from earlier work; for Duration plasma concentrations above 20 ng/ml: immediate release
[5] = cited from earlier work
patients = conditions: cited from earlier work
male adults with AGA = conditions: 5 mg oral at bedtime, cited from earlier work
Chinese hamster cells = Chinese hamster cells at long exposure times; cited from earlier work
[6] = oral, dose level 2.5 mg, healthy volunteers
[7] = oral, dose level 5 mg, healthy volunteers
[8] = oral, dose level 10 mg, healthy volunteers

Nc1cc(N2CCCCC2)nc(N)[n+]1[O-] [Minoxidil]
Mutagenicity (Salmonella): not mutagenic
Serious adverse events (SAEs) reported (subjects with hair loss; topical foam 5% versus topical solution 2% in female pattern hair loss, 322 subjects, NCT01145625): Ten serious adverse events (SAEs) were reported
SAEs reported in subjects treated with minoxidil (subjects with hair loss; topical foam 5% versus vehicle topical foam, 404 subjects, NCT01226459): Six SAEs were reported
Mutagenicity (rat bone marrow): not mutagenic
Steady state plasma concentrations associated with significant (>5 beats per minute) changes in heart rate (hypertensive patients): above 20 ng/mL
Cytogenetic assay result (human lymphocytes): negative
Fetal resorption (rats [1]): not seen
Teratogenic effects (rats [1]): no evidence of teratogenic effects
Adverse events ([2]; 0.625 mg four times a day): No unwanted hair growth or other adverse events were noticed
Effect on blood pressure ([2]; 0.625 mg four times a day): did not experience significant reductions in blood pressure
Adverse events ([2]; 1.25 mg QID): No unwanted hair growth or other adverse events, including any cardiac effects, were noticed
Incidence of hepatic nodules (mice; up to 2 years, 63 mg/kg/day): increased incidence of hepatic nodules in males
Incidence of malignant lymphomas (mice; up to 2 years, 10, 25, and 63 mg/kg/day): increased incidence of malignant lymphomas in females at all dose levels
Cardiac lesions (dogs): various cardiac lesions have been found
Mutagenicity (rat hepatocyte): not mutagenic
Mutagenicity (mouse bone marrow): not mutagenic
Carcinogenicity (rats [3]; doses 15 times the usual human dosage for 22 months): No evidence of carcinogenicity
Carcinogenicity findings (rats [3]; oral administration, two-year study): no positive findings
Fetal resorption (rabbits; 5 times the maximum recommended oral antihypertensive human dose): increased fetal resorption
Teratogenic effects (rabbits): no evidence of teratogenic effects
Dose dependence of PK and urinary excretion ([4]; 2.5 mg, 5 mg, or 10 mg oral, healthy volunteers): dose-independent PK
Effect on blood pressure ([4]; 2.5 mg, 5 mg, or 10 mg oral, normotensive subjects): little effect on blood pressure in normotensive subjects
Duration plasma concentrations above 20 ng/ml ([4]; 5 mg dose level): around 1 h
Duration plasma concentrations above 20 ng/ml ([4]; 10 mg dose level): around 2 h
Observed half-life ([4]; immediate release formulation, oral): around 1 h
AUC(last) [4, 6]: 25.3 ng·h/mL
Cmax [4, 6]: 16.8 ng/mL
T1/2 [4, 6]: 64.2 min
Tmax [4, 6]: 34 min
AUC(last) [4, 7]: 55.1 ng·h/mL
Cmax [4, 7]: 37.2 ng/mL
T1/2 [4, 7]: 76.2 min
Tmax [4, 7]: 23.3 min
AUC(last) [4, 8]: 112 ng·h/mL
Cmax [4, 8]: 74.7 ng/mL
T1/2 [4, 8]: 80.4 min
Tmax [4, 8]: 25.1 min
Predominant metabolite in urine ([5]; first 12 h, hypertensive patients): A glucuronide conjugate
Renal clearance ([5]; human, in vivo): 73.3 mL/min
Radioactivity found in feces ([5]; hypertensive patients): 3%
Total radioactivity recovered from urine ([5]; hypertensive patients): 97%
Time to peak plasma levels ([5]; oral): ≤ 1 h
Fraction of oral minoxidil metabolized ([5]; primarily by conjugation with glucuronic acid): About 90%
Radiolabeled minoxidil and metabolites recovered from urine ([5]; within 24 h after oral administration, hypertensive patients): Over 80%
Temporary decrease in hematocrit, hemoglobin, and erythrocyte count (hemodilution) (patients; chronic therapy for severe hypertension, initially): approximately 7%
Patients in whom hypertrichosis was hardly or not at all tolerable (patients; human, in vivo): less than 10%
Plasma concentrations above which hemodynamic effects are typically seen (patients; human, in vivo): > 20 ng/mL
Patients exhibiting ECG alterations in direction and magnitude of T waves (patients; soon after starting therapy): approximately 60%
Subjects reporting edema (male adults with AGA; 24 week follow up, 34 subjects): 2.9%
Subjects reporting headache (male adults with AGA; 24 week follow up, 34 subjects): 20.6%
Subjects reporting vertigo (male adults with AGA; 24 week follow up, 34 subjects): 2.9%
Subjects reporting hypertrichosis (male adults with AGA; 24 weeks, 34 subjects): 55.9%
Adverse cardiovascular outcomes (male adults with AGA; 24 weeks): No adverse cardiovascular outcomes were observed
Cytogenetic assay result (Chinese hamster cells): equivocal result

From US20250332108A1 (Veradermics, Incorporated, priority 2024, published 2025)
